Reference: patent publication US12521393B2, “Cytotoxicity targeting chimeras for CCR2-expressing cells” (GLAXOSMITHKLINE INTELLECTUAL PROPERTY DEVELOPMENT LIMITED, priority 2021, dated 2026)

Assays:
[1] = test system: endogenous target monocytes in human PBMC; experiment: PBMC ex vivo monocyte depletion flow cytometry assay (Example 200); format: cell-based; settings: with anti-cotinine antibody (SEQ ID NO: 11/12), 18-24 hours, EC50 in molar, read-out: Ex Vivo Depletion Assay pEC50 (converted)
Method in brief: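 Monocyte depletion is reported as pEC50, averaged or given individually across runs, and read by flow cytometry staining CD45, CD14 and CD4 with a viability dye. Compounds, diluted four-fold over 11 points from 1 mM DMSO stocks, were combined with 30 μg/mL Fc-enhanced anti-cotinine antibody and human PBMC, then incubated 18-24 h at 37° C.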

[2] = molecular target: anti-cotinine antibody (SEQ ID NO: 11/12, rabbit variable region with human IgG1 Fc DE mutation); experiment: SPR binding of anti-cotinine antibody to ARM compounds, Biacore T200, 37° C. (Example 202); settings: SPR Biacore T200, 37° C., pH 7.4, antibody SEQ ID NO: 11/12 captured on protein A; Kd in molar
Protocol: Anti-cotinine antibodies having a heavy chain sequence of SEQ ID NO: 11 and a light chain sequence of SEQ ID NO: 12 (rabbit variable region with human IgG1 Fc domain containing a DE mutation (S239D/1332E)) were captured on one or more flow cells of a protein A sensor chip (Cytiva) using a Biacore T200 while reserving flow cell 1 as a reference. Following capture, a 3000 second wait step was included to reduce drift during compound analysis. ARM compounds of Formula (I) were then injected at 100 μL/min with 200 and 2000 second association and dissociation times. The entire experiment was run at 37° C. with running buffer containing 10 mM HEPES pH 7.4, 150 mM NaCl, 0.005% P20 and 1% DMSO. ARM compounds of Formula (I) were titrated with a top concentration of 200 nM using a 3-fold 5-point dilution series and a corresponding 5-injection buffer cycle was run for blank subtraction. Data were double referenced by subtracting the response of the reference flow cell from that of the antibody-containing flow cell and subsequently subtracting the referenced blank sensorgrams. Following compound analysis, the surface was regenerated using a 30 second injection of pH 1.5 glycine at a flow rate of 30 μL/min after which antibody was re-captured. The experiment was run using Biacore T200 control software and evaluated using Biacore T200 Evaluation software. Curves were fit with a 1:1 kinetic binding model to obtain kon (1/Ms), koff(1/s), Kd (M) determined as koff/kon, and residence time determined as 1/koff (s).
Anti-cotinine antibody was tested for binding to ARMs compounds of Formula (I) of the invention in the above assay in or more experimental runs and the results are shown in Table 5 below. Affinity is reported as a pKd value. The pKd value is the negative log of the Kd value, wherein the Kd value is the dissociation constant measured in molar (M) as noted above. For compounds tested in more than one experimental run, the pKd value is reported as an average

| SMILES | EC50 [1] | pKd of Antibody for ARM Compound of Formula (I) [2] |
| --- | --- | --- |
| CC(C)N(C)[C@@H]1CCC(N2CC[C@H](Nc3ncnc4ccc(C(F)(F)F)cc34)C2=O)[C@H](NC(=O)CCOCCOCCOCCOCCOCCOCCOCCOCCNC(=O)[C@H]2CC(=O)N(C)[C@@H]2c2cccnc2)C1 (stereo partly drawn) [Example 42, (2S,3S)-N-(27-(((1R,2S,5R)-5-(isopropyl(methyl)amino)-2-((S)-2-oxo-3-((6-(trifluoromethyl)quinazolin-4-yl)amino)pyrrolidin-1-yl)cyclohexyl)amino)-27-oxo-3,6,9,12,15,18,21,24-octaoxaheptacosyl)-1-methyl-5-oxo-2-(pyriidn-3-yl)pyrrolidine-3-carboxamide] | 3.16 nM | 9.23 |
| CC(C)N(C)[C@@H]1CC[C@H](N2CC[C@H](Nc3ncnc4ccc(C(F)(F)F)cc34)C2=O)[C@H](NC(=O)COCCNC(=O)CCOCCOCCNC(=O)CCNC(=O)[C@H]2CC(=O)N(C)[C@@H]2c2cccnc2)C1 [Example 50, (2S,3S)-N-(1-(((1R,2S,5R)-5-(Isopropyl(methyl)amino)-2-((S)-2-oxo-3-((6-(trifluromethyl)quinazolin-4-yl)amino)pyrrolidin-1-yl)cyclohexyl)amino)-1,7,17-trioxo-3,10,13-trioxa-6,16-diazanonadecan-19-yl)-1-methyl-5-oxo-2-(pyridin-3-yl)pyrrolidine-3-carboxamide] | 0.126 nM | 9.1485 |
| CC(C)N(C)[C@@H]1CC[C@H](N2CC[C@H](Nc3ncnc4ccc(C(F)(F)F)cc34)C2=O)[C@H](NC(=O)[C@H]2C[C@H](NC(=O)CCOC[C@H]3CC[C@H](COCCNC(=O)[C@H]4CC(=O)N(C)[C@@H]4c4cccnc4)CC3)C2)C1 [Example 54, (2S,3S)-N-(2-(((1R,4S)-4-((3-(((1R,3R)-3-(((1R,2S,5R)-5-(Isopropyl(methyl)amino)-2-((S)-2-oxo-3-((6-(trifluoromethyl)quinazolin-4-yl)amino)pyrrolidin-1-yl)cyclohexyl)carbamoyl)cyclobutyl)amino)-3-oxopropoxy)methyl)cyclohexyl)methoxy)ethyl)-1-methyl-5-oxo-2-(pyridin-3-yl)pyrrolidine-3-carboxamide] | 1 nM | 9.5515 |
| CN1C(=O)C[C@H](C(=O)NCC(=O)NCCOCCOCCC(=O)N[C@H]2CC[C@@H](C(=O)N[C@@H]3C[C@H](NC(C)(C)C)CC[C@@H]3N3CC[C@H](Nc4ncnc5ccc(C(F)(F)F)cc45)C3=O)CC2)[C@H]1c1cccnc1 [Example 65, (2S,3S)-N-(2-((2-(2-(3-(((1S,4s)-4-(((1R,2S,5R)-5-(tert-Butylamino)-2-((S)-2-oxo-3-((6-(trifluoromethyl)quinazolin-4-yl)amino)pyrrolidin-1-yl)cyclohexyl)carbamoyl)cyclohexyl)amino)-3-oxopropoxy)ethoxy)ethyl)amino)-2-oxoethyl)-1-methyl-5-oxo-2-(pyridin-3-yl)pyrrolidine-3-carboxamide] | 100000 nM | 8.648 |
| CC(C)N(C)[C@@H]1CC[C@H](N2CC[C@H](Nc3ncnc4ccc(C(F)(F)F)cc34)C2=O)[C@H](NC(=O)[C@H]2C[C@@H](NC(=O)CCOCCOCCNC(=O)CNC(=O)[C@H]3CC(=O)N(C)[C@@H]3c3cccnc3)C2)C1 [Example 66, (2S,3S)-N-(2-((2-(2-(3-(((1S,3s)-3-(((1R,2S,5R)-5-(Isopropyl(methyl)amino)-2-((S)-2-oxo-3-((6-(trifluoromethyl)quinazolin-4-yl)amino)pyrrolidin-1-yl)cyclohexyl)carbamoyl)cyclobutyl)amino)-3-oxopropoxy)ethoxy)ethyl)amino)-2-oxoethyl)-1-methyl-5-oxo-2-(pyridin-3-yl)pyrrolidine-3-carboxamide] | 0.631 nM | 8.649 |
| CC(C)N(C)[C@@H]1CC[C@H](N2CC[C@H](Nc3ncnc4ccc(C(F)(F)F)cc34)C2=O)[C@H](NC(=O)COCCOCCNC(=O)COCCNC(=O)CCNC(=O)[C@H]2CC(=O)N(C)[C@@H]2c2cccnc2)C1 [Example 74, (2S,3S)-N-(1-(((1R,2S,5R)-5-(isopropyl(methyl)amino)-2-((S)-2-oxo-3-((6-(trifluoromethyl)quinazolin-4-yl)amino)pyrrolidin-1-yl)cyclohexyl)amino)-1,10,16-trioxo-3,6,12-trioxa-9,15-diazaoctadecan-18-yl)-1-methyl-5-oxo-2-(pyridin-3-yl)pyrrolidine-3-carboxamide] | 100000 nM | 9.091 |
| CC(C)N(C)[C@@H]1CC[C@H](N2CC[C@H](Nc3ncnc4ccc(C(F)(F)F)cc34)C2=O)[C@H](NC(=O)CCOCCOCCNC(=O)COCCNC(=O)CCNC(=O)[C@H]2CC(=O)N(C)[C@@H]2c2cccnc2)C1 [Example 75, (2S,3S)-N-(19-(((1R,2S,5R)-5-(Isopropyl(methyl)amino)-2-((S)-2-oxo-3-((6-(trifluoromethyl)quinazolin-4-yl)amino)pyrrolidin-1-yl)cyclohexyl)amino)-3,9,19-trioxo-7,13, 16-trioxa-4, 10-diazanonadecyl)-1-methyl-5-oxo-2-(pyridin-3-yl)pyrrolidine-3-carboxamide] | 1 nM | 9.103 |
| CC(C)N(C)[C@@H]1CC[C@H](N2CC[C@H](Nc3ncnc4ccc(C(F)(F)F)cc34)C2=O)[C@H](NC(=O)COCCNC(=O)CCNC(=O)COCCOCCNC(=O)[C@H]2CC(=O)N(C)[C@@H]2c2cccnc2)C1 [Example 79, (2S,3S)-N-(18-(((1R,2S,5R)-5-(Isopropyl(methyl)amino)-2-((S)-2-oxo-3-((6-(trifluoromethyl)quinazolin-4-yl)amino)pyrrolidin-1-yl)cyclohexyl)amino)-8,12,18-trioxo-3,6,16-trioxa-9,13-diazaoctadecyl)-1-methyl-5-oxo-2-(pyridin-3-yl)pyrrolidine-3-carboxamide] | 3.16 nM | 9.126 |
| CN1C(=O)C[C@H](C(=O)NCCOCC(=O)NCCOCC(=O)NCCOCCC(=O)N[C@@H]2C[C@H](NC(C)(C)C)CC[C@@H]2N2CC[C@H](Nc3ncnc4ccc(C(F)(F)F)cc34)C2=O)[C@H]1c1cccnc1 [Example 103, (2S,3S)-N-(18-(((1R,2S,5R)-5-(tert-Butylamino)-2-((S)-2-oxo-3-((6-(trifluoromethyl)quinazolin-4-yl)amino)pyrrolidin-1-yl)cyclohexyl)amino)-5,11,18-trioxo-3,9,15-trioxa-6, 12-diazaoctadecyl)-1-methyl-5-oxo-2-(pyridin-3-yl)pyrrolidine-3-carboxamide] | 100000 nM | 9.0985 |
| CC(C)N(C)[C@@H]1CC[C@H](N2CC[C@H](Nc3ncnc4ccc(C(F)(F)F)cc34)C2=O)[C@H](NC(=O)COCCNC(=O)CCOCCNC(=O)COCCNC(=O)[C@H]2CC(=O)N(C)[C@@H]2c2cccnc2)C1 [Example 104, (2S,3S)-N-(18-(((1R,2S,5R)-5-(Isopropyl(methyl)amino)-2-((S)-2-oxo-3-((6-(trifluoromethyl)quinazolin-4-yl)amino)pyrrolidin-1-yl)cyclohexyl)amino)-5,12,18-trioxo-3,9,16-trioxa-6,13-diazaoctadecyl)-1-methyl-5-oxo-2-(pyridin-3-yl)pyrrolidine-3-carboxamide] | 0.631 nM | 9.051 |
| CC(C)N(C)[C@@H]1CC[C@H](N2CC[C@H](Nc3ncnc4ccc(C(F)(F)F)cc34)C2=O)[C@H](NC(=O)COCCNC(=O)[C@H]2CC[C@@H](NC(=O)CCOCCNC(=O)[C@H]3CC(=O)N(C)[C@@H]3c3cccnc3)CC2)C1 [Example 109, (2S,3S)-N-(2-(3-(((1S,4R)-4-((2-(2-(((1R,2S,5R)-5-(Isopropyl(methyl)amino)-2-((S)-2-oxo-3-((6-(trifluoromethyl)quinazolin-4-yl)amino)pyrrolidin-1-yl)cyclohexyl)amino)-2-oxoethoxy)ethyl)carbamoyl)cyclohexyl)amino)-3-oxopropoxy)ethyl)-1-methyl-5-oxo-2-(pyridin-3-yl)pyrrolidine-3-carboxamide] | 0.631 nM | 8.951 |
